Measurements published in patent US11166959B2, “Isofuranone compounds useful as HPK1 inhibitors” (BRISTOL-MYERS SQUIBB COMPANY, priority 2017, dated 2021).
pIC50: −log10 of the molar value. Where two headings read alike, the source gives them in different places.

Experiments:
IRAK4 = molecular target: T1, IRAK4 (Homo sapiens, UniProt Q9NWZ3); assay: IRAK4 Inhibition Assay (kinase reaction, Caliper capillary electrophoresis); type: biochemical; conditions: 500 μM ATP, 11 concentrations
T1 construct: 1 nM IRAK4 (160-460); purchased SignalChem M24016
T1 sequence (Q9NWZ3 160-460): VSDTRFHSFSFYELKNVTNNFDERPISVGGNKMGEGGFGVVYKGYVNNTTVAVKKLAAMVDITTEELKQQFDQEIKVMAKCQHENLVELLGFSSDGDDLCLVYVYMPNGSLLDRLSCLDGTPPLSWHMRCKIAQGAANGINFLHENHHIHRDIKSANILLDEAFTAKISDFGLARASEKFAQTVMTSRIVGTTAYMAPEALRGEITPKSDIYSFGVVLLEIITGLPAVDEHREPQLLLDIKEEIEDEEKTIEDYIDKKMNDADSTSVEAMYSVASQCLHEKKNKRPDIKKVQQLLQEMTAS
Protocol: (§1) The reactions were incubated out for three hours and quenched with 1 mM EDTA solution. The reaction incubation time and enzyme concentration were optimized to obtain a maximum peptide substrate conversion of 20-30%. The reaction mixtures were analyzed by capillary electrophoresis on a Caliper LabChip EZ Reader to resolve phosphorylated and unphosphorylated peptide species and determine peptide substrate conversion. […] The compounds were dissolved in DMSO and evaluated at 11 concentrations to determine IC50 values.

HPK1 = molecular target: T2, HPK1 (Homo sapiens, UniProt Q92918); assay: HPK1 Inhibition Assay (kinase reaction, Caliper capillary electrophoresis); type: biochemical; conditions: for IRAK4/HPK1 Ratio: ratio of the IRAK4 IC50 value to the HPK1 IC50 value
T2 construct: purchased SignalChem M23-11G
T2 sequence (Q92918 1-346 limits assumed): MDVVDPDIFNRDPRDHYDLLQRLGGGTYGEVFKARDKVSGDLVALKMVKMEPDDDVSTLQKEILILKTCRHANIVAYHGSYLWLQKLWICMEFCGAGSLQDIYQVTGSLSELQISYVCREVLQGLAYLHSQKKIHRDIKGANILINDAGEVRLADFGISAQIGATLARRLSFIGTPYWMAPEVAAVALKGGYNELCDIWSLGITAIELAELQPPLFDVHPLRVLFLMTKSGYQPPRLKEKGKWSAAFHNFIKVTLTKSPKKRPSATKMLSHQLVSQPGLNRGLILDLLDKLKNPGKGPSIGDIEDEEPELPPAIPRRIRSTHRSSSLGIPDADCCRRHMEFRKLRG
Protocol: as §1, with “to determine the IC50 values.” for “to determine IC50 values.”

[1] = 0.625 nM HPK1, 22 μM ATP, 11 concentrations, read-out: HPK1 IC50

Compound	pIC50 (IRAK4)	pIC50 (HPK1; [1])	IRAK4/HPK1 Ratio (HPK1)	pIC50 (HPK1)
CC1(C)OC(=O)c2ccc(Nc3cc(N[C@H](CO)c4ccccc4)c(-c4nc(C56CCN(CC5)CC6)no4)cn3)nc21 [Example 81, 2-{[5-(3-{1-azabicyclo[2.2.2]octan-4-yl}-1,2,4-oxadiazol-5-yl)-4-{[(1S)-2-hydroxy-1-phenylethyl]amino}pyridin-2-yl]amino}-7,7-dimethyl-5H,7H-furo[3,4-b]pyridin-5-one]	6.60 to 7.30	–	C (C=>50)	> 7.30
CC1(C)OC(=O)c2ccc(Nc3cc(NCc4nccs4)c(-c4nc(C56CCN(CC5)CC6)no4)cn3)nc21 [Example 84, 2-{[5-(3-{1-azabicyclo[2.2.2]octan-4-yl}-1,2,4-oxadiazol-5-yl)-4-{[(1,3-thiazol-2-yl)methyl]amino}pyridin-2-yl]amino}-7,7-dimethyl-5H,7H-furo[3,4-b]pyridin-5-one]	6.00 to 6.60	> 7.30	C (C=>50)	–
CC1(C)OC(=O)c2ccc(Nc3cc(N[C@H](CO)c4ccc(F)cc4)c(-c4nc(C56CCN(CC5)CC6)no4)cn3)nc21 [Example 82, 2-{[5-(3-{1-azabicyclo[2.2.2]octan-4-yl}-1,2,4-oxadiazol-5-yl)-4-{1[(1S)-1-(4-fluorophenyl)-2-hydroxyethyl]amino}pyridin-2-yl]amino}-7,7-dimethyl-5H,7H-furo [3,4-b]pyridin-5-one]	6.60 to 7.30	–	C (C=>50)	> 7.30
CC1(C)OC(=O)c2ccc(Nc3ncc(C(=O)NCC4(CN5CCOCC5)CC4)c(N[C@H](CO)c4ccccc4)n3)cc21 [Example 26, 2-[(3,3-dimethyl-1-oxo-1,3-dihydro-2-benzofuran-5-yl)amino]-4-{[(1S)-2-hydroxy-1-phenylethyl]amino}-N-({1-[(morpholin-4-yl)methyl]cyclopropyl}methyl)pyrimidine-5-carboxamide]	6.00 to 6.60	> 7.30	C (C=>50)	–
CC1(C)OC(=O)c2ccc(Nc3cc(NCc4cccnc4)c(-c4nc(C56CCN(CC5)CC6)no4)cn3)nc21 [Example 85, 2-{[5-(3-{1-azabicyclo[2.2.2]octan-4-yl}-1,2,4-oxadiazol-5-yl)-4-{[(pyridin-3-yl)methyl]amino}pyridin-2-yl]amino}-7,7-dimethyl-5H,7H-furo[3,4-b]pyridin-5-one]	6.00 to 6.60	> 7.30	C (C=>50)	–
CC1(C)OC(=O)c2ccc(Nc3cc(N[C@H](CO)C4CC4)c(-c4nc(C5CC5)no4)cn3)cc21 [Example 79, 5-{[5-(3-cyclopropyl-1,2,4-oxadiazol-5-yl)-4-{[(1S)-1-cyclopropyl-2-hydroxyethyl]amino}pyridin-2-yl]amino}-3,3-dimethyl-1,3-dihydro-2-benzofuran-1-one]	6.00 to 6.60	6.60 to 7.30	B (B=10 to 50)	–
CC1(C)OC(=O)c2ccc(Nc3cc(N[C@H](CO)c4ccccc4)c(-c4nnc(C5(C#N)CC5)o4)cn3)nc21 [Example 88, 1-{5-[6-({7,7-dimethyl-5-oxo-5H,7H-furo[3,4-b]pyridin-2-yl}amino)-4-{[(1S)-2-hydroxy-1-phenylethyl]amino}pyridin-3-yl]-1,3,4-oxadiazol-2-yl}cyclopropane-1-carbonitrile]	6.00 to 6.60	> 7.30	C (C=>50)	–
CC(C)(CN)CNc1nc(Nc2ccc3c(c2)C(C)(C)OC3=O)ncc1-c1nc(C2CCOCC2)no1 [Example 77, 5-({4-[(3-amino-2,2-dimethylpropyl)amino]-5-[3-(oxan-4-yl)-1,2,4-oxadiazol-5-yl]pyrimidin-2-yl}amino)-3,3-dimethyl-1,3-dihydro-2-benzofuran-1-one]	6.00 to 6.60	> 7.30	C (C=>50)	–

Continued, in another order:

pIC50 (IRAK4)	pIC50 (HPK1; [1])	IRAK4/HPK1 Ratio (HPK1)	Compound	pIC50 (HPK1)
6.00 to 6.60	6.60 to 7.30	B (B=10 to 50)	CC1(C)OC(=O)c2ccc(Nc3ncc(-c4nc(C5CC5)no4)c(Nc4ccc5[nH]ncc5c4)n3)cc21 [Example 75, 5-{[5-(3-cyclopropyl-1,2,4-oxadiazol-5-yl)-4-[(1H-indazol-5-yl)amino]pyrimidin-2-yl]amino}-3,3-dimethyl-1,3-dihydro-2-benzofuran-1-one]	–
6.00 to 6.60	> 7.30	C (C=>50)	CC1(C)OC(=O)c2ccc(Nc3ncc(C(=O)NCc4ccccc4)c(N[C@H](CO)c4ccccc4)n3)cc21 [Example 10, N-benzyl-2-[(3,3-dimethyl-1-oxo-1,3-dihydro-2-benzofuran-5-yl)amino]-4-{[(1S)-2-hydroxy-1-phenylethyl]amino}pyrimidine-5-carboxamide]	–
6.00 to 6.60	6.60 to 7.30	B (B=10 to 50)	CC1(C)OC(=O)c2ccc(Nc3cc(N[C@H](CO)c4ccccc4)c(-c4nc(C5CC5)no4)cn3)cc21 [Example 78, 5-{[5-(3-cyclopropyl-1,2,4-oxadiazol-5-yl)-4-{[(1S)-2-hydroxy-1-phenylethyl]amino}pyridin-2-yl]amino}-3,3-dimethyl-1,3-dihydro-2-benzofuran-1-one]	–
6.00 to 6.60	6.60 to 7.30	B (B=10 to 50)	CC1(C)OC(=O)c2ccc(Nc3ncc(-c4nc(-c5cccc(F)c5)no4)c(N[C@H](CO)c4ccccc4)n3)cc21 [Example 45, 5-({5-[3-(3-fluorophenyl)-1,2,4-oxadiazol-5-yl]-4-{[(1S)-2-hydroxy-1-phenylethyl]amino}pyrimidin-2-yl}amino)-3,3-dimethyl-1,3-dihydro-2-benzofuran-1-one]	–
6.00 to 6.60	> 7.30	B (B=10 to 50)	CC1(C)OC(=O)c2ccc(Nc3ncc(C(=O)NCCCN4CCOCC4)c(N[C@H](CO)c4ccccc4)n3)cc21 [Example 7, 2-[(3,3-dimethyl-1-oxo-1,3-dihydro-2-benzofuran-5-yl)amino]-4-{[(1S)-2-hydroxy-1-phenylethyl]amino}-N-[3-(morpholin-4-yl)propyl]pyrimidine-5-carboxamide]	–
6.00 to 6.60	6.60 to 7.30	B (B=10 to 50)	Cc1noc(-c2cnc(Nc3ccc4c(c3)C(C)(C)OC4=O)nc2NCc2ccccc2C(C)(C)O)n1 [Example 72, 5-{[4-({[2-(2-hydroxypropan-2-yl)phenyl]methyl}amino)-5-(3-methyl-1,2,4-oxadiazol-5-yl)pyrimidin-2-yl]amino}-3,3-dimethyl-1,3-dihydro-2-benzofuran-1-one]	–
6.60 to 7.30	> 7.30	B (B=10 to 50)	CC1(C)OC(=O)c2ccc(Nc3ncc(C4=NCC5(CCOCC5)O4)c(N[C@H](CO)c4ccccc4)n3)cc21 [Example 27, 5-[(5-{1,8-dioxa-3-azaspiro[4.5]dec-2-en-2-yl}-4-{[(1S)-2-hydroxy-1-phenylethyl]amino}pyrimidin-2-yl)amino]-3,3-dimethyl-1,3-dihydro-2-benzofuran-1-one]	–
6.00 to 6.60	> 7.30	C (C=>50)	CC1(C)OC(=O)c2ccc(Nc3ncc(-c4nnc(-c5cccnc5)o4)c(N[C@H](CO)c4ccccc4)n3)cc21 [Example 57, 5-[(4-{[(1S)-2-hydroxy-1-phenylethyl]amino}-5-[5-(pyridin-3-yl)-1,3,4-oxadiazol-2-yl]pyrimidin-2-yl)amino]-3,3-dimethyl-1,3-dihydro-2-benzofuran-1-one]	–
6.00 to 6.60	> 7.30	B (B=10 to 50)	CC1(C)OC(=O)c2ccc(Nc3ncc(-c4nnc(C(C)(O)C(F)(F)F)o4)c(N[C@H](CO)c4ccccc4)n3)cc21 (stereo partly drawn) [Example 65, 5-[(4-{[(1S)-2-hydroxy-1-phenylethyl]amino}-5-[5-(1,1,1-trifluoro-2-hydroxypropan-2-yl)-1,3,4-oxadiazol-2-yl]pyrimidin-2-yl)amino]-3,3-dimethyl-1,3-dihydro-2-benzofuran-1-one]	–
6.00 to 6.60	> 7.30	C (C=>50)	CC1(C)OC(=O)c2ccc(Nc3ncc(-c4nc(-c5cccnc5)no4)c(N[C@H](CO)c4ccccc4)n3)cc21 [Example 43, 5-[(4-{[(1S)-2-hydroxy-1-phenylethyl]amino}-5-[3-(pyridin-3-yl)-1,2,4-oxadiazol-5-yl]pyrimidin-2-yl)amino]-3,3-dimethyl-1,3-dihydro-2-benzofuran-1-one]	–
